Assays:
[1] = target: human vasopressin V1b receptor (Homo sapiens (Human), UniProt P47901); assay: Vasopressin V1b receptor binding assay; conditions: membranes from CHO-K1 cells, displacement of 3H-AVP
Method: The test substances were dissolved in a concentration of 5 mM in 100% DMSO and further diluted to 5×10^−4 M to 5×10^−9 M. These serial DMSO predilutions were diluted 1:10 with assay buffer. The substance concentration was further diluted 1:5 in the assay mixture resulting in 2% DMSO in the mixture. All dilutions were performed in a Biomek NX automation workstation (Beckman)
The membrane pellet was again homogenized and centrifuged as described and subsequently taken up in 50 mM Tris-HCl, pH 7.4, homogenized and stored in aliquots frozen in liquid nitrogen at −190° C.
(§1) The incubation buffer was: 50 mM Tris, 10 mM MgCl2, 0.1% BSA, pH 7.4.
All determinations were carried out as duplicate determinations. […] The liquid scintillation measurement took place in a Microbeta TriLux 12 (Wallac). Analysis:
(§2) The binding parameters were calculated by nonlinear regression in SAS.

[2] = target: human vasopressin V1a receptor (Homo sapiens (Human), UniProt P37288); assay: Vasopressin V1a receptor binding assay; conditions: selectivity quotient, human V1a vs human V1b receptor
Method: The test substances were dissolved in a concentration of 5 mM M in DMSO. Further dilution of these DMSO solutions took place as described for V1b.
The membrane pellet was again homogenized in a High-Pressure-Homogenizer, Polytec 50K at 1500 PSI (Heinemann, Germany) and subsequently taken up in 50 mM Tris-HCl, pH 7.4, homogenized and stored in aliquots frozen in liquid nitrogen at −190° C.
as §1
Duplicate determinations were carried out.
After incubation (60 minutes at room temperature), the samples were processed as described for V1b.
as §2

Sequence of human vasopressin V1a receptor (P37288 whole entry): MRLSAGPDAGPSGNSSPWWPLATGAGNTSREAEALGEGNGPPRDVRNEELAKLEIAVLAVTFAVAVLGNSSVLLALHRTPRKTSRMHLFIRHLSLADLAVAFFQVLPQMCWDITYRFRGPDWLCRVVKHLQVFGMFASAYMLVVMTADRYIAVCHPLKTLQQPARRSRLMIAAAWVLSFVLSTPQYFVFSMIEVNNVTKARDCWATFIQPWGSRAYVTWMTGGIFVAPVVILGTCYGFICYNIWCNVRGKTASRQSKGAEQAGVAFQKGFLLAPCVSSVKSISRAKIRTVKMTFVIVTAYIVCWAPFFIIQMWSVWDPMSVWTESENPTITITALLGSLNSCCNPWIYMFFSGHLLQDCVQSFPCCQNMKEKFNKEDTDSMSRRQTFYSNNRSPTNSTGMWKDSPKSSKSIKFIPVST
Sequence of human vasopressin V1b receptor (P47901 whole entry): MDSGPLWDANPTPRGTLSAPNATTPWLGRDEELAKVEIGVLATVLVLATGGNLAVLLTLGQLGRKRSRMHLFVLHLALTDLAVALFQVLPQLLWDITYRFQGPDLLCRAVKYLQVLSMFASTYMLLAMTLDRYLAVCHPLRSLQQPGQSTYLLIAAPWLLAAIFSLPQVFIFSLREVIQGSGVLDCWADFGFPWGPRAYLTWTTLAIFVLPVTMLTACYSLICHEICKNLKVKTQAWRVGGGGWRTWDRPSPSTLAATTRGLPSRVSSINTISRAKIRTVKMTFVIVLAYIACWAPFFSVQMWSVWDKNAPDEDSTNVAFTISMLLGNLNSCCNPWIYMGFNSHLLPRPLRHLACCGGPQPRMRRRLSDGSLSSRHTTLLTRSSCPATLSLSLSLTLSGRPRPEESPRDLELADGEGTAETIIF

Ki [1] [nM]	Ki(h-V1a)/ Ki(h-V1b) [2]	SMILES
1 to 10	+++ (>75)	CCOc1ccc(OC)cc1C1(N2CC3(CN(C4CCN(C)CC4)C3)C2)C(=O)N(S(=O)(=O)c2ccc(OC)cn2)c2ccc(C#N)cc21 (racemic) [Example 1, (±)-3-(2-ethoxy-5-methoxy-phenyl)-1-[(5-methoxy-2-pyridyl)sulfonyl]-3-[2-(1-methyl-4-piperidyl)-2,6-diazaspiro[3.3]heptan-6-yl]-2-oxo-indoline-5-carbonitrile]
10 to 100	++ (25-75)	CCOc1ccc(OC)cc1C1(N2CC3(CN(C4CCN(C)CC4)C3)C2)C(=O)N(S(=O)(=O)c2ccc(OC)cc2OC)c2ccc(C#N)cc21 (racemic) [Example 2, (±)-1-(2,4-dimethoxyphenyl)sulfonyl-3-(2-ethoxy-5-methoxy-phenyl)-3-[2-(1-methyl-4-piperidyl)-2,6-diazaspiro[3.3]heptan-6-yl]-2-oxo-indoline-5-carbonitrile]
10 to 100	+++ (>75)	CCOc1ccc(OC)cc1C1(N2CC3(CN(C4CCN(C)CC4)C3)C2)C(=O)N(S(=O)(=O)c2cccc3cccnc23)c2ccc(C#N)cc21 (racemic) [Example 3, (±)-3-(2-ethoxy-5-methoxy-phenyl)-3-[2-(1-methyl-4-piperidyl)-2,6-diazaspiro[3.3]heptan-6-yl]-2-oxo-1-(8-quinolylsulfonyl)indoline-5-carbonitrile]
1 to 10	+ (10-<25)	CCOc1ccc(OC)cc1C1(N2CC3(CN(C4CCN(C)CC4)C3)C2)C(=O)N(S(=O)(=O)c2ccc(OC)cc2)c2ccc(C#N)cc21 (racemic) [Example 5, (±)-3-(2-ethoxy-5-methoxy-phenyl)-1-(4-methoxyphenyl)sulfonyl-3-[2-(1-methyl-4-piperidyl)-2,6-diazaspiro[3.3]heptan-6-yl]-2-oxo-indoline-5-carbonitrile]
1 to 10	+++ (>75)	CCOc1cc(F)ccc1C1(N2CC3(CN(C4CCN(C)CC4)C3)C2)C(=O)N(S(=O)(=O)c2ccc(OC)cn2)c2ccc(C#N)cc21 (racemic) [Example 7, (±)-3-(2-ethoxy-4-fluoro-phenyl)-1-[(5-methoxy-2-pyridyl)sulfonyl]-3-[2-(1-methyl-4-piperidyl)-2,6-diazaspiro[3.3]heptan-6-yl]-2-oxo-indoline-5-carbonitrile]
10 to 100	–	CCOc1ncccc1C1(N2CC3(CN(C4CCN(C)CC4)C3)C2)C(=O)N(S(=O)(=O)c2ccc(OC)cc2)c2ccc(C#N)cc21 (racemic) [Example 12, (±)-3-(2-ethoxy-3-pyridyl)-1-(4-methoxyphenyl)sulfonyl-3-[2-(1-methyl-4-piperidyl)-2,6-diazaspiro[3.3]heptan-6-yl]-2-oxo-indoline-5-carbonitrile]
1 to 10	–	CCOc1ccc(OC)cc1C1(N2CC3(CN(C4CCN(C)CC4)C3)C2)C(=O)N(S(=O)(=O)c2ccc(OC)cn2)c2cc(C#N)ccc21 (racemic) [Example 29, (±)-3-(2-ethoxy-5-methoxy-phenyl)-1-[(5-methoxy-2-pyridyl)sulfonyl]-3-[2-(1-methyl-4-piperidyl)-2,6-diazaspiro[3.3]heptan-6-yl]-2-oxo-indoline-6-carbonitrile]
10 to 100	–	CCOc1ccc(OC)cc1C1(N2CC3(CN(C4CCN(C)CC4)C3)C2)C(=O)N(S(=O)(=O)c2ccc(OC)cc2)c2ccc(C#N)cc21 (single isomer, unassigned; (-)) [Example 6, (−)-3-(2-ethoxy-5-methoxy-phenyl)-1-(4-methoxyphenyl)sulfonyl-3-[2-(1-methyl-4-piperidyl)-2,6-diazaspiro[3.3]heptan-6-yl]-2-oxo-indoline-5-carbonitrile]
10 to 100	–	CCOc1ccc(OC)cc1[C@]1(N2CC3(CN(C4CCN(C)CC4)C3)C2)C(=O)N(S(=O)(=O)c2cccc(OC)n2)c2ccc(C#N)cc21 [Example 32, (3S)-3-(2-ethoxy-5-methoxy-phenyl)-1-[(6-methoxy-2-pyridyl)sulfonyl]-3-[2-(1-methyl-4-piperidyl)-2,6-diazaspiro[3.3]heptan-6-yl]-2-oxo-indoline-5-carbonitrile]
